Source: US10556907B2 (AbbVie Inc., priority 2015, dated 2020)
Structures can show the parent of a compound that is named as a salt.

What was measured:
Experiment in all cases: Method 1: intracellular Ca2+ release (FLIPR, Calcium 5) in recombinant CHO-K1 cells
Assay type in all cases: cell-based
human S1PR5 receptor = molecular target: T1, human S1PR5 receptor (Homo sapiens, UniProt Q9H228); conditions: agonist potency, determined with method 1 (symbols A-D); read-out: S1P5 EC50 range
T1 construct: host or cells: CHO-K1
Procedure, shortened: (§1)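 For antagonist mode, compounds were pre-incubated 10 min before phospho-fingolimod at EC80; in agonist mode, compounds were added directly to Calcium 5-loaded CHO-K1 cells co-expressing Gq/i5. Fluorescence was measured on FLIPR, and EC50 was fitted relative to the phospho-fingolimod curve.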

human S1PR1 receptor = molecular target: T2, human S1PR1 receptor (Homo sapiens, UniProt P21453); conditions: (1): determined with method 1; read-out: S1P1 EC50
T2 construct: host or cells: CHO-K1
Procedure, shortened: as §1

human S1PR4 receptor = molecular target: T3, human S1PR4 receptor (Homo sapiens, UniProt O95977); conditions: (1): determined with method 1; read-out: S1P4 EC50
T3 construct: host or cells: CHO-K1
T3 sequence (O95977 1-384): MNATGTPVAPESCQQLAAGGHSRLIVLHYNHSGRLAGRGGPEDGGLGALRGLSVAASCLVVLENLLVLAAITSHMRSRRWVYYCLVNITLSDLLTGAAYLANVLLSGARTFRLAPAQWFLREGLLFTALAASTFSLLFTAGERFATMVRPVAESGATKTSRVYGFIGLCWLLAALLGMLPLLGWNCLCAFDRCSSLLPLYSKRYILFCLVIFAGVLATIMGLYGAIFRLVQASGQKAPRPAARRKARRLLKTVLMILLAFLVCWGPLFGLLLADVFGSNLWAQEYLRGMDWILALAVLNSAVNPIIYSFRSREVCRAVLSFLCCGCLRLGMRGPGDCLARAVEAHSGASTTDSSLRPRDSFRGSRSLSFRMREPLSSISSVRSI
Procedure, shortened: as §1

T1 sequence (Q9H228 whole entry): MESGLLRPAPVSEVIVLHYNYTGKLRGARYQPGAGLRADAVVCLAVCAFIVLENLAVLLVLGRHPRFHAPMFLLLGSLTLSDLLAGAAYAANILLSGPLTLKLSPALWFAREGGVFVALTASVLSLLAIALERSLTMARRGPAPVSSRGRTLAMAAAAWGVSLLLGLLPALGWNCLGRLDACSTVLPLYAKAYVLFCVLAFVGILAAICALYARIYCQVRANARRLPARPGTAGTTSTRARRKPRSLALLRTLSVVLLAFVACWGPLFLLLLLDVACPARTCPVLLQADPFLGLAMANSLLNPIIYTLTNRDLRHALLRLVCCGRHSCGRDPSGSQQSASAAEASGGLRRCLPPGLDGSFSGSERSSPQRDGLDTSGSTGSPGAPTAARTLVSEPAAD
T2 sequence (P21453 whole entry): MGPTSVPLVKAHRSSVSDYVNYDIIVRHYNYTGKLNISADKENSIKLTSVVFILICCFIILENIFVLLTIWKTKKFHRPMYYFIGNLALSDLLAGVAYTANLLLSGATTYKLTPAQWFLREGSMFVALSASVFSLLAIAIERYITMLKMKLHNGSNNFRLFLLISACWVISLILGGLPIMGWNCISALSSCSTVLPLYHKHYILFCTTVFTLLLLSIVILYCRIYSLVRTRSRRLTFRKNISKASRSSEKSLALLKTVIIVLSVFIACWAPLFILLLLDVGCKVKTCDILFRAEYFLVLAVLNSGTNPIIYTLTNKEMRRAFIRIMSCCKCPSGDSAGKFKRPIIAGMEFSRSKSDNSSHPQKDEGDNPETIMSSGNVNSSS

| EC50 (human S1PR5 receptor) [µM] | EC50 (human S1PR1 receptor) [µM] | EC50 (human S1PR4 receptor) [µM] | SMILES |
| --- | --- | --- | --- |
| 0.01 to 0.1 | > 1 | > 1 | Cc1cccc(COc2ccc(-c3ncc4c(n3)CCN(CC(C)CC(=O)O)C4)c(F)c2)c1 (stereo not drawn) [Compound 264, 4-[2-[2-fluoro-4-(m-tolylmethoxy)phenyl]-7,8-dihydro-5H-pyrido[4,3-d]pyrimidin-6-yl]-3-methyl-butanoic acid 2,2,2-trifluoroacetic acid salt] |
| 1 to 10 | > 1 | < 1 | Cc1cc(-c2ncc3c(n2)CCN(CC(C)CC(=O)O)C3)ccc1CCc1cccc(Cl)c1 (stereo not drawn) [Compound 331, 4-(2-(4-(3-chlorophenethyl)-3-methylphenyl)-7,8-dihydropyrido[4,3-d]pyrimidin-6(5H)-yl)-3-methylbutanoic acid] |
| 0.01 to 0.1 | > 1 | > 1 | Cc1cc(-c2ncc3c(n2)CCN(CC(C)CC(=O)O)C3)ccc1OCc1cccc(C(F)(F)F)c1C (stereo not drawn) [Compound 273, 3-methyl-4-(2-(3-methyl-4-((2-methyl-3-(trifluoromethyl)benzyl)oxy)phenyl)-7,8-dihydropyrido[4,3-d]pyrimidin-6(5H)-yl)butanoic acid] |
| 0.1 to 1 | > 1 | > 1 | C[C@H](CC(=O)O)CN1CCc2nc(-c3ccc(C(F)(F)Cc4ccc(Cl)cc4)cc3)ncc2C1 (single isomer, unassigned) [Compound 294, 4-(2-(4-(2-(4-chlorophenyl)-1,1-difluoroethyl)phenyl)-7,8-dihydropyrido[4,3-d]pyrimidin-6(5H)-yl)-3-methylbutanoic acid] |
| 1 to 10 | > 1 | > 1 | O=C(O)CN1CCc2nc(Cc3c(F)cccc3F)ncc2C1 [Compound 26, 2-(2-(2,6-difluorobenzyl)-7,8-dihydropyrido[4,3-d]pyrimidin-6(5H)-yl)acetic acid] |
| 0.1 to 1 | > 1 | > 1 | CC(CC(=O)O)CN1CCc2nc(-c3ccc(/C=C/c4ccc(Cl)cc4)cc3)ncc2C1 (stereo not drawn) [Compound 297, 4-(2-(4-(4-chlorostyryl)phenyl)-7,8-dihydropyrido[4,3-d]pyrimidin-6(5H)-yl)-3-methylbutanoic acid] |
| 0.1 to 1 | > 1 | > 1 | Cc1ccc(C(F)(F)F)cc1COc1ccc(-c2ncc3c(n2)CCN(CC(C)CC(=O)O)C3)cc1C (stereo not drawn) [Compound 314, 3-methyl-4-[2-[3-methyl-4-[[2-methyl-5-(trifluoromethyl)phenyl]methoxy]phenyl]-7,8-dihydro-5H-pyrido[4,3-d]pyrimidin-6-yl]butanoic acid 2,2,2-trifluoroacetic acid salt] |
| 1 to 10 | > 1 | > 1 | O=C(O)C1CC(N2CCc3nc(C#Cc4ccccc4)c(F)cc3C2)C1 (stereo not drawn) [Compound 184, 3-(3-fluoro-2-(phenylethynyl)-7,8-dihydro-1,6-naphthyridin-6(5H)-yl)cyclobutanecarboxylic acid] |
| 1 to 10 | > 1 | > 1 | CC(CC(=O)O)CN1Cc2cnc(-c3ccc(OCc4ccc(Cl)cc4)cc3)nc2CC1(C)C (stereo not drawn) [Compound 329, 4-(2-(4-((4-chlorobenzyl)oxy)phenyl)-7,7-dimethyl-7,8-dihydropyrido[4,3-d]pyrimidin-6(5H)-yl)-3-methylbutanoic acid] |
| 0.1 to 1 | > 1 | > 1 | CCc1ccc(COc2ccc(-c3ncc4c(n3)CCN(CC(C)CC(=O)O)C4)cc2C)cc1 (stereo not drawn) [Compound 306, 4-[2-[4-[(4-ethylphenyl)methoxy]-3-methyl-phenyl]-7,8-dihydro-5H-pyrido[4,3-d]pyrimidin-6-yl]-3-methyl-butanoic acid 2,2,2-trifluoroacetic acid salt] |
| 0.1 to 1 | > 1 | > 1 | Cc1cc(-c2ncc3c(n2)CCN(CC(C)CC(=O)O)C3)ccc1OCc1cccc(C)c1C (stereo not drawn) [Compound 300, 4-[2-[4-[(2,3-dimethylphenyl)methoxy]-3-methyl-phenyl]-7,8-dihydro-5H-pyrido[4,3-d]pyrimidin-6-yl]-3-methyl-butanoic acid 2,2,2-trifluoroacetic acid salt] |
| 0.1 to 1 | > 1 | > 1 | O=C(O)CC1CC(N2CCc3nc(-c4ccc(OCc5cc(Cl)cc(Cl)c5)cc4)ncc3C2)C1 (stereo not drawn) [Compound 5, 2-(3-(2-(4-((3,5-dichlorobenzyl)oxy)phenyl)-7,8-dihydropyrido[4,3-d]pyrimidin-6(5H)-yl)cyclobutyl)acetic acid] |
| 0.1 to 1 | > 1 | > 1 | Cc1ccc(C)c(COc2ccc(-c3ncc4c(n3)CCN(CC(C)CC(=O)O)C4)cc2C)c1 (stereo not drawn) [Compound 311, 4-[2-[4-[(2,5-dimethylphenyl)methoxy]-3-methyl-phenyl]-7,8-dihydro-5H-pyrido[4,3-d]pyrimidin-6-yl]-3-methyl-butanoic acid 2,2,2-trifluoroacetic acid salt] |
| 1 to 10 | > 1 | > 1 | Cc1cccc(COc2ccc(-c3ncc4c(n3)CCN(CC(C)CC(=O)O)C4)cc2C)c1 (stereo not drawn) [Compound 320, 3-methyl-4-[2-[3-methyl-4-(m-tolylmethoxy)phenyl]-7,8-dihydro-5H-pyrido[4,3-d]pyrimidin-6-yl]butanoic acid 2,2,2-trifluoroacetic acid salt] |
| 0.1 to 1 | > 1 | > 1 | CC(C(=O)O)N1CCc2nc(-c3ccc(OCc4ccc(Cl)cc4)cc3)ncc2C1 (stereo not drawn) [Compound 312, 2-(2-(4-((4-chlorobenzyl)oxy)phenyl)-7,8-dihydropyrido[4,3-d]pyrimidin-6(5H)-yl)propanoic acid] |
| 0.01 to 0.1 | > 1 | > 1 | Cc1ccc(C(F)(F)F)cc1COc1ccc(-c2ncc3c(n2)CCN(CC(C)CC(=O)O)C3)c(F)c1 (stereo not drawn) [Compound 272, 4-[2-[2-fluoro-4-[[2-methyl-5-(trifluoromethyl)phenyl]methoxy]phenyl]-7,8-dihydro-5H-pyrido[4,3-d]pyrimidin-6-yl]-3-methyl-butanoic acid 2,2,2-trifluoroacetic acid salt] |
| 0.1 to 1 | > 1 | > 1 | CC(CC(=O)O)CN1CCc2nc(-c3ccc(OCc4ccc(F)cc4)cc3F)ncc2C1 (stereo not drawn) [Compound 298, 4-[2-[2-fluoro-4-[(4-fluorophenyl)methoxy]phenyl]-7,8-dihydro-5H-pyrido[4,3-d]pyrimidin-6-yl]-3-methyl-butanoic acid 2,2,2-trifluoroacetic acid salt] |
| 0.1 to 1 | > 1 | > 1 | CCc1ccccc1COc1ccc(-c2ncc3c(n2)CCN(CC(C)CC(=O)O)C3)c(F)c1 (stereo not drawn) [Compound 296, 4-[2-[4-[(2-ethylphenyl)methoxy]-2-fluoro-phenyl]-7,8-dihydro-5H-pyrido[4,3-d]pyrimidin-6-yl]-3-methyl-butanoic acid 2,2,2-trifluoroacetic acid salt] |
| 0.1 to 1 | > 1 | > 1 | CC(CC(=O)O)CN1CCc2nc(-c3ccc(C4CC4c4cccc(Cl)c4)cc3)ncc2C1 (stereo not drawn) [Compound 293, 4-(2-(4-(2-(3-chlorophenyl)cyclopropyl)phenyl)-7,8-dihydropyrido[4,3-d]pyrimidin-6(5H)-yl)-3-methylbutanoic acid] |
| 0.01 to 0.1 | > 1 | < 1 | O=C(O)CN1CCc2nc(-c3ccc(OCc4cccc(F)c4F)cc3)ncc2C1 [Compound 28, 2-(2-(4-((2,3-difluorobenzyl)oxy)phenyl)-7,8-dihydropyrido[4,3-d]pyrimidin-6(5H)-yl)acetic acid] |
| 0.1 to 1 | > 1 | > 1 | O=C(O)C1CCC(N2CCc3nc(-c4ccc(OCc5cccc(Cl)c5)cc4)ncc3C2)C1 (stereo not drawn) [Compound 288, 3-(2-(4-((3-chlorobenzyl)oxy)phenyl)-7,8-dihydropyrido[4,3-d]pyrimidin-6(5H)-yl)cyclopentanecarboxylic acid hydrochloride] |
| 0.1 to 1 | > 1 | > 1 | CC(C(=O)O)N1CCc2nc(-c3ccc(OCc4cc(F)cc(F)c4)cc3)ncc2C1 (stereo not drawn) [Compound 299, 2-(2-(4-((3,5-difluorobenzyl)oxy)phenyl)-7,8-dihydropyrido[4,3-d]pyrimidin-6(5H)-yl)propanoic acid] |
| 0.01 to 0.1 | > 1 | > 1 | CC(CC(=O)O)CN1CCc2nc(-c3ccc(/C=C/c4ccc(Cl)cc4F)cc3)ncc2C1 (stereo not drawn) [Compound 282] |
| 0.1 to 1 | > 1 | > 1 | Cc1cc(-c2ncc3c(n2)CCN(CC(C)CC(=O)O)C3)ccc1CCc1ccc(Cl)cc1 (stereo not drawn) [Compound 291, 4-(2-(4-(4-chlorophenethyl)-3-methylphenyl)-7,8-dihydropyrido[4,3-d]pyrimidin-6(5H)-yl)-3-methylbutanoic acid] |
| < 0.01 | > 1 | < 1 | CC(CC(=O)O)CN1CCc2nc(-c3ccc(OCC4CCCCC4)cc3)ncc2C1 (stereo not drawn) [Compound 336, 4-(2-(4-(cyclohexylmethoxy)phenyl)-7,8-dihydropyrido[4,3-d]pyrimidin-6(5H)-yl)-3-methylbutanoic acid] |
